Source: patent US20210130401A1, “PEPTIDOMIMETIC INHIBITORS OF THE WDR5-MLL INTERACTION” (THE REGENTS OF THE UNIVERSITY OF MICHIGAN, priority 2017, published 2021)
Starred links: 1 amine or outer side, 2 acyl side, 3 side chain; linkers in the order of their positions; H or OH if unused. Positions of bridges follow the written chain, without caps; N, C: chain ends. Non-standard residues stand in square brackets, D forms with d. Residues, ends and D or L forms follow the SMILES beside them. ξ: configuration not given here. *: point of attachment. dαMeDab = C[C@](CCN[*:3])(N[*:1])C(=O)[*:2]; Arg(ω-nPr) = CCCNC(=N)NCCC[C@H](N)C(=O)O; Lys(Me2) = CN(C)CCCC[C@H](N)C(=O)O; dCha = N[C@H](CC1CCCCC1)C(=O)O; dPhg = N[C@@H](C(=O)O)c1ccccc1; ξhhPhe = NC(CCCc1ccccc1)C(=O)O; Imidazol2yl = c1c[nH]c(*)n1; Isobutyryl = CC(C)C(=O)*; Orn = NCCC[C@H](N)C(=O)O; Ac5c = NC1(C(=O)O)CCCC1; Dab = NCC[C@H](N)C(=O)O; Abu = CC[C@H](N)C(=O)O; Acryloyl = C=CC(=O)*

Test system: MOLM-13 leukemia cells carrying MLL-AF9 fusion
Test: cell viability assay (WST-8), MOLM-13
Type: cell-based
Details: Homo sapiens, MOLM-13, 96 h, read-out: MOLM-13 IC50 (μM)

Question: With `CC[C@@H]1NC(=O)[C@H](CCCNC(N)NC)NC(=O)[C@](C)(NC(=O)C(C)C)CCNC(=O)[C@@H](CC2CCCCC2)NC1=O` (stereo partly drawn) [Cpd. No. 87, N-((3R,6S,9S,12R)-9-(3-((amino(methylamino)methyl)amino)propyl)-3-(cyclohexylmethyl)-6-ethyl-12-methyl-2,5,8,11-tetraoxo-1,4,7,10-tetraazacyclotetradecan-12-yl)isobutyramide] as the compound, how does the IC50 read?
Answer: 0.46 µM

Question: Which IC50 does the source give for `CC[C@@H]1NC(=O)[C@H](CCC(N)=O)NC(=O)[C@](C)(NC(=O)C(C)C)CCNC(=O)[C@@H](c2ccccc2)NC1=O` [Cpd. No. 15, N-((3R,6S,12R)-9-(3-amino-3-oxopropyl)-6-ethyl-12-methyl-2,5,8,11-tetraoxo-3-phenyl-1,4,7,10-tetraazacyclotetradecan-12-yl)isobutyramide] (Isobutyryl-[dαMeDab]Q[Abu][dPhg]; lactam 1-C) here?
Answer: > 10 µM

Question: `CC[C@@H]1NC(=O)[C@H](CNC2CCN(C)CC2)NC(=O)[C@](C)(NC(=O)C(C)C)CCNC(=O)[C@@H](c2ccccc2)NC1=O` [Cpd. No. 7, N-((3R,6S,9S,12R)-6-ethyl-12-methyl-9-(((1-methylpiperidin-4-yl)amino)methyl)-2,5,8,11-tetraoxo-3-phenyl-1,4,7,10-tetraazacyclotetradecan-12-yl)isobutyramide] was tested. Which IC50 did it give?
Answer: > 10 µM

Question: For `CC[C@@H]1NC(=O)[C@H](CCCCN(C)C)NC(=O)[C@](C)(NC(=O)C(C)C)CCNC(=O)[C@@H](c2ccccc2)NC1=O` [Cpd. No. 6, N-((3R,6S,9S,12R)-9-(4-(dimethylamino)butyl)-6-ethyl-12-methyl-2,5,8,11-tetraoxo-3-phenyl-1,4,7,10-tetraazacyclotetradecan-12-yl)isobutyramide] (Isobutyryl-[dαMeDab][Lys(Me2)][Abu][dPhg]; lactam 1-C), which IC50 is on record?
Answer: > 10 µM

Question: How did the IC50 turn out when `CC[C@@H]1NC(=O)[C@H](CCCNC(=N)NN)NC(=O)[C@](C)(NC(=O)C(C)C)CCNC(=O)[C@@H](CC2CCCCC2)NC1=O` [Cpd. No. 34, N-((3R,6S,9S,12R)-3-(cyclohexylmethyl)-6-ethyl-9-(3-(hydrazinecarboximidamido)propyl)-12-methyl-2,5,8,11-tetraoxo-1,4,7,10-tetraazacyclotetradecan-12-yl)isobutyramide] was run?
Answer: > 10 µM

Question: For `CC[C@@H]1NC(=O)[C@H](CCNC2CCN(C)CC2)NC(=O)[C@](C)(NC(=O)C(C)C)CCNC(=O)[C@@H](c2ccccc2)NC1=O` [Cpd. No. 8, N-((3R,6S,9S,12R)-6-ethyl-12-methyl-9-(2-((1-methylpiperidin-4-yl)amino)ethyl)-2,5,8,11-tetraoxo-3-phenyl-1,4,7,10-tetraazacyclotetradecan-12-yl)isobutyramide], which IC50 is on record?
Answer: > 10 µM

Question: `CCCNC(=N)NCCC[C@@H]1NC(=O)[C@](C)(NC(=O)C(C)C)CCNC(=O)[C@@H](CC2CCCCC2)NC(=O)[C@H](CC)NC1=O` [Cpd. No. 46, N-((3R,6S,9S,12R)-3-(cyclohexylmethyl)-6-ethyl-12-methyl-2,5,8,11-tetraoxo-9-(3-(3-propylguanidino)propyl)-1,4,7,10-tetraazacyclotetradecan-12-yl)isobutyramide] (Isobutyryl-[dαMeDab][Arg(ω-nPr)][Abu][dCha]; lactam 1-C) was tested. Which IC50 did it give?
Answer: > 10 µM

Question: For `CC(C)C(=O)N[C@]1(C)CCNC(=O)[C@@H](c2ccccc2)NC(=O)C2(CCCC2)NC(=O)[C@H](CCCNC(=N)N)NC1=O` [Cpd. No. 86, N-((8S,11R,16R)-8-(3-guanidinopropyl)-11-methyl-7,10,15,18-tetraoxo-16-phenyl-6,9,14,17-tetraazaspiro[4.13]octadecan-11-yl)isobutyramide] (Isobutyryl-[dαMeDab]R[Ac5c][dPhg]; lactam 1-C), which IC50 is on record?
Answer: > 10 µM

Question: For `CC[C@@H]1NC(=O)C(CCCc2ccccc2)NC(=O)[C@](C)(NC(=O)C(C)C)CCNC(=O)[C@@H](c2ccccc2)NC1=O` (stereo partly drawn) [Cpd. No. 14, N-((3R,6S,12R)-6-ethyl-12-methyl-2,5,8,11-tetraoxo-3-phenyl-9-(3-phenylpropyl)-1,4,7,10-tetraazacyclotetradecan-12-yl)isobutyramide] (Isobutyryl-[dαMeDab][ξhhPhe][Abu][dPhg]; lactam 1-C), which IC50 is on record?
Answer: > 10 µM

Question: `CC[C@@H]1NC(=O)[C@H](CCNc2ncc[nH]2)NC(=O)[C@](C)(NC(=O)C(C)C)CCNC(=O)[C@@H](c2ccccc2)NC1=O` [Cpd. No. 19, N-((3R,6S,9S,12R)-9-(2-((1H-imidazol-2-yl)amino)ethyl)-6-ethyl-12-methyl-2,5,8,11-tetraoxo-3-phenyl-1,4,7,10-tetraazacyclotetradecan-12-yl)isobutyramide] (Isobutyryl-[dαMeDab][Dab](Imidazol2yl)[Abu][dPhg]; lactam 1-C) was tested. Which IC50 did it give?
Answer: > 10 µM

Question: For `CCCCNC(=N)NCCC[C@@H]1NC(=O)[C@](C)(NC(=O)C(C)C)CCNC(=O)[C@@H](CC2CCCCC2)NC(=O)[C@H](CC)NC1=O` [Cpd. No. 47, N-((3R,6S,9S,12R)-9-(3-(3-butylguanidino)propyl)-3-(cyclohexylmethyl)-6-ethyl-12-methyl-2,5,8,11-tetraoxo-1,4,7,10-tetraazacyclotetradecan-12-yl)isobutyramide], which IC50 is on record?
Answer: > 10 µM

Question: `CC[C@@H]1NC(=O)[C@H](CCCNC2=NCC(F)(F)CN2)NC(=O)[C@](C)(NC(=O)C(C)C)CCNC(=O)[C@@H](CC2CCCCC2)NC1=O` [Cpd. No. 95, N-((3R,6S,9S,12R)-3-(cyclohexylmethyl)-9-(3-((5,5-difluoro-1,4,5,6-tetrahydropyrimidin-2-yl)amino)propyl)-6-ethyl-12-methyl-2,5,8,11-tetraoxo-1,4,7,10-tetraazacyclotetradecan-12-yl)isobutyramide] was tested. Which IC50 did it give?
Answer: > 10 µM

Question: With `CC[C@@H]1NC(=O)[C@H](CCCNC(=N)N)NC(=O)[C@](C)(NC(=O)C(C)C)CCNC(=O)[C@@H](c2cccc3ccccc23)NC1=O` [Cpd. No. 81, N-((3R,6S,9S,12R)-6-ethyl-9-(3-guanidinopropyl)-12-methyl-3-(naphthalen-1-yl)-2,5,8,11-tetraoxo-1,4,7,10-tetraazacyclotetradecan-12-yl)isobutyramide] as the compound, how does the IC50 read?
Answer: 1.29 µM

Same assay, conditions: Homo sapiens, MOLM-13, 96 h; Table 2A; 4 days treatment; read-out: MOLM-13 IC50

Question: With `C=CC(=O)NCCC[C@@H]1NC(=O)[C@](C)(NC(=O)C(C)C)CCNC(=O)[C@@H](c2ccccc2)NC(=O)[C@H](CC)NC1=O` [Cpd. No. 23, N-(3-((5S,8R,13R)-5-ethyl-13-isobutyramido-13-methyl-3,6,9,14-tetraoxo-8-phenyl-1,4,7,10-tetraazacyclotetradecan-2-yl)propyl)acrylamide] (Isobutyryl-[dαMeDab][Orn](Acryloyl)[Abu][dPhg]; lactam 1-C) as the compound, how does the IC50 read?
Answer: > 10 µM

Question: `CC[C@@H]1NC(=O)[C@H](CCCNC(=N)N)NC(=O)[C@](C)(NC(=O)C(C)C)CCNC(=O)[C@@H](CC(C)C)NC1=O` [Cpd. No. 49, N-((3R,6S,9S,12R)-6-ethyl-9-(3-guanidinopropyl)-3-isobutyl-12-methyl-2,5,8,11-tetraoxo-1,4,7,10-tetraazacyclotetradecan-12-yl)isobutyramide] (Isobutyryl-[dαMeDab]R[Abu][dL]; lactam 1-C) was tested. Which IC50 did it give?
Answer: 1.88 µM

Question: With `C=CC(=O)NCCCC[C@@H]1NC(=O)[C@](C)(NC(=O)C(C)C)CCNC(=O)[C@@H](c2ccccc2)NC(=O)[C@H](CC)NC1=O` [Cpd. No. 24, N-(4-((2S,5S,8R,13R)-5-ethyl-13-isobutyramido-13-methyl-3,6,9,14-tetraoxo-8-phenyl-1,4,7,10-tetraazacyclotetradecan-2-yl)butyl)acrylamide] (Isobutyryl-[dαMeDab]K(Acryloyl)[Abu][dPhg]; lactam 1-C) as the compound, how does the IC50 read?
Answer: > 10 µM
